Among the test systems are MOLT-4 leukemia; OVCAR-3 ovarian; UO-31 renal; IGROV1 ovarian; CAKI-1 renal; A549 NSCLC; HOP-62 NSCLC; OVCAR-4 ovarian; SR leukemia.
Common to all, as to assay: inhibition of tumour cell growth, NCI panel, 48 h

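Each compound was tested at five concentrations against cells in 96-well plates for 48 hours. Here, GI50 denotes the concentration required for 50% inhibition of growth. The concentration for full growth arrest is given as TGI.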

We go through twelve compounds from PubChem BioAssay (NCI).

Turning to `C=C1C(=O)c2cc3c(cc2C(c2cc(OC)c(OC)c(OC)c2)[C@@H]1C(=O)O)OCO3` (some centres not stated), the TGI is over 100 µM with MOLT-4 leukemia; 72.8 µM with OVCAR-3 ovarian; over 100 µM in the assay with UO-31 renal; over 100 µM in the assay with IGROV1 ovarian; over 100 µM with CAKI-1 renal; over 100 µM in the assay on A549 NSCLC.

In the case of `COc1cc(C2C(C(=O)O)=C(COC(C)=O)Oc3cc4c(cc32)OCO4)cc(OC)c1OC(C)=O` (configuration not stated), the TGI with MOLT-4 leukemia, in the assay with HOP-62 NSCLC, in the assay with OVCAR-3 ovarian, in the assay on OVCAR-4 ovarian, in the assay on UO-31 renal and in the assay with IGROV1 ovarian was over 100 µM each time. The TGI with CAKI-1 renal and in the assay on A549 NSCLC was over 100 µM in each case.

For the compound `CN(C)c1ccc(/C=c2\sc3nnc(-c4cccnc4)n3c2=O)cc1`, the TGI with MOLT-4 leukemia, in the assay with HOP-62 NSCLC, in the assay with OVCAR-3 ovarian, with OVCAR-4 ovarian, in the assay with UO-31 renal and in the assay with IGROV1 ovarian was over 100 µM in each case. Besides, the TGI with CAKI-1 renal and in the assay on A549 NSCLC was over 100 µM each time.

Take `CCc1nc2ccccc2c(=O)n1/N=C(\N=Nc1ccc(Cl)cc1)c1ccccc1`: the TGI in the assay with MOLT-4 leukemia is over 100 µM; in the assay on HOP-62 NSCLC, 69.4 µM; with OVCAR-3 ovarian, 57.1 µM; in the assay with OVCAR-4 ovarian, 75.6 µM; in the assay on UO-31 renal, 76.8 µM; in the assay with IGROV1 ovarian it was over 100 µM. Besides, the TGI in the assay with CAKI-1 renal was determined as 46.4 µM; with A549 NSCLC, 98.7 µM.

Consider `O=C1NC(=O)C2C1C1C=C3c4ccccc4N(c4ccccc4)C32[C@H]2C(=O)NC(=O)[C@@H]12` (some centres not stated), for which the TGI in the assay with MOLT-4 leukemia, with HOP-62 NSCLC, in the assay with OVCAR-3 ovarian, in the assay with OVCAR-4 ovarian, in the assay on UO-31 renal and in the assay on IGROV1 ovarian was over 100 µM in each case. Moreover, the TGI in the assay with CAKI-1 renal and with A549 NSCLC was over 100 µM each time.

On to `Cn1c2cc([N+](=O)[O-])ccc2c(=O)c2c(O)cc3c(c21)C=CC(C)(C)O3`, for which the TGI was over 100 µM in the assay with MOLT-4 leukemia; over 100 µM with OVCAR-4 ovarian; 67.6 µM with UO-31 renal; over 100 µM with IGROV1 ovarian; over 100 µM in the assay on CAKI-1 renal; over 100 µM in the assay with A549 NSCLC.

Regarding `O=C(O)c1cn(C2CC2)c2cc(N3CCN(C(=O)Nc4nc(-c5ccc(Br)cc5)cs4)CC3)c(F)cc2c1=O`, the GI50 is 0.622 µM in the assay on MOLT-4 leukemia; 4.34 µM in the assay with HOP-62 NSCLC; 1.42 µM with OVCAR-3 ovarian; 1.64 µM with UO-31 renal; 0.454 µM with SR leukemia; 3.38 µM with IGROV1 ovarian. In addition, the GI50 with A549 NSCLC is 3.68 µM. In addition, the TGI in the assay on MOLT-4 leukemia, in the assay on HOP-62 NSCLC, in the assay on OVCAR-3 ovarian, in the assay on UO-31 renal, in the assay on SR leukemia and with IGROV1 ovarian was over 100 µM in each case. This compound also showed a TGI with A549 NSCLC of over 100 µM.

In the case of `N#Cc1c(-c2ccccc2)cc(-c2cccs2)c(C#N)c1N`, the TGI with MOLT-4 leukemia, in the assay with HOP-62 NSCLC, with OVCAR-3 ovarian, in the assay with OVCAR-4 ovarian, with CAKI-1 renal and with A549 NSCLC was over 100 µM in each case.

Regarding `Fc1ccc(C2SCc3nc4ccccc4n32)cc1F` (configuration not stated), the TGI in the assay with MOLT-4 leukemia was 56 µM; in the assay on HOP-62 NSCLC, over 100 µM; in the assay with OVCAR-3 ovarian, over 100 µM; with OVCAR-4 ovarian it was 98.9 µM; in the assay with UO-31 renal it was 41 µM; in the assay with IGROV1 ovarian, over 100 µM. Also, the TGI in the assay with CAKI-1 renal and in the assay with A549 NSCLC was over 100 µM each time.

For `COC(=O)c1nc(C(=O)OC)c2c([nH]c3ccccc32)c1C(=O)OC`, the TGI was over 100 µM in the assay with MOLT-4 leukemia; over 100 µM in the assay on HOP-62 NSCLC; over 100 µM with OVCAR-3 ovarian; 75.9 µM in the assay on UO-31 renal; over 100 µM in the assay with SR leukemia; over 100 µM in the assay with IGROV1 ovarian. The compound also came in with a TGI in the assay on A549 NSCLC of over 100 µM.

For `O=C1C(=C([O-])c2ccccc2)C(=O)c2ccccc21.O=C1C(=C([O-])c2ccccc2)C(=O)c2ccccc21.[Co+2]`, the GI50 is over 100 µM in the assay on MOLT-4 leukemia; over 100 µM with HOP-62 NSCLC; 75.1 µM in the assay on OVCAR-3 ovarian; over 100 µM in the assay on OVCAR-4 ovarian; over 100 µM with UO-31 renal; over 100 µM with IGROV1 ovarian. Besides, the results for the GI50 in the assay with CAKI-1 renal and in the assay with A549 NSCLC were 57.3 µM and over 100 µM, respectively. Moreover, the TGI in the assay on MOLT-4 leukemia, in the assay on HOP-62 NSCLC, with OVCAR-3 ovarian, in the assay on OVCAR-4 ovarian, in the assay on UO-31 renal and in the assay on IGROV1 ovarian was over 100 µM in each case. In addition, the TGI in the assay on CAKI-1 renal and in the assay on A549 NSCLC was over 100 µM each time.

Turning to `C=C(COC(C)=O)CC(/C=C(\C)CC/C=C(\C)CO)OC(C)=O` (configuration not stated), the TGI with MOLT-4 leukemia, with HOP-62 NSCLC, in the assay with OVCAR-3 ovarian, with OVCAR-4 ovarian, in the assay with UO-31 renal and in the assay on IGROV1 ovarian was over 100 µM each time. In the assay on A549 NSCLC, this compound yielded a TGI of over 100 µM.
